Legend:
[1] = test system: Hsp90 client proteins (Raf-1, total and phosphorylated Akt); assay: Western blotting of Hsp90 client proteins in 293T cells; assay type: cell-based, human; details: 2 μM, 24 h, positive control
Experimental: FIG. 5A is a digital image of a western blot analysis illustrating the effect of lead compounds on the expression of Hsp90 client proteins. 293T cells stably expressing Hsp90(α/β)/p23 split reporters were treated with carrier control or compounds CP1, CP9, or CP18 (5 μM each) for 24 h. The known Hsp90 inhibitor PU-H71 (2 μM) was used as a positive control. The expression of Hsp90 client proteins (Raf-1, total and phosphorylated Akt) was determined by western blotting. α-Tubulin was used as a loading control.
Cells treated with PU-H71 (2 μM) served as a positive control.
Cells treated with 2 μM of PU-H71 served as a positive control. Western blotting of Hsp70, phosphorylated and total Akt and co-immunoprecipitation of Hsp90(α/β)/p23 interactions was performed as described Inglese et al., (2006) Proc. Nat. Acad. Sci. U.S.A. 103: 11473-11478, incorporated herein by reference in its entirety. The expression of Raf-1 was determined using rabbit polyclonal antibodies against Raf-1 (0.5 μg/ml, Abcam).

[2] = test system: DOX-resistant V79/ADR lung cancer cells; assay: Sensitivity to DOX, Alamar Blue assay; assay type: cell-based; details: DOX 0.31-10 μM with inhibitor (CP9 8 μM), 24 h
Experimental: FIGS. 13A-13C illustrate the inhibition of cell proliferation of DOX-resistant V79/ADR lung cancer cells by CP9 and the Hsp90 inhibitor PU-H71 in cell culture. V79 lung cancer cells and […] cells that are resistant to DOX were treated with DOX (0.31-10 μM) in the presence or absence of CP9 (8 μM) for 24 h before determination of cell number by an Alamar Blue assay.
Both Hsp90 isoforms (α and β) are expressed in cancer cells, but Hsp90β is constitutively expressed, whereas the expression of Hsp90α is highly inducible during stress and drug treatment. Using the genetically encoded split Renilla reporter system according to the disclosure, it was possible to decipher the individual contributions of each isoform in determining the sensitivity of Hsp90 inhibitors. It was reported that the transcription of MDR1 is regulated by HSF-1, which in turn is regulated by Hsp90α (Trepel et al., (2010) Nat. Rev. Cancer 10: 537-549). To determine the biological significance of CP9 selectivity in inhibiting Hsp90α/p23 interactions, V79 lung cancer cells and V79/ADR cells that overexpress multidrug-resistant protein and are insensitive to growth inhibition by doxorubicin (DOX) were used. V79 and V79/ADR cells were treated with DOX alone or in the presence of CP9. On the other hand, the addition of CP9 sensitized V79/ADR cells to DOX, as shown by the decrease in cell proliferation relative to treatment with DOX alone, as shown in FIG. 13B. […] The results also are consistent with the observation that derivatives of Hsp90 inhibitor peptides sensitize cancer cells with overexpression of MDR to epirubicin (a class of anthracyclines that includes DOX) (Molnar et al., (2007) In Vivo 21: 429-433).

CC(C)NCCCn1c(Sc2cc3c(cc2I)OCO3)nc2c(N)ncnc21 [PU-H71, reference compound]
levels of Hsp90 client proteins (pAkt/total Akt, Raf-1) [1]: decreased levels of Raf-1, pAkt and total Akt
sensitivity of drug-resistant V79/ADR cells to DOX [2]: restored the sensitivity
